Consider three molecules from ChEMBL document CHEMBL1151575, “J-104,123, a novel and orally-active inhibitor of squalene synthase: Stereoselective synthesis and cholesterol lowering effects in dogs” (Bioorg Med Chem Lett, 1996).

The nature of data set [1]: Area under the curve for compound was evaluated in dog at a dose of 20 mg/kg. It is filed as ADME, organism-based, Canis lupus familiaris. Set-up: dose 20 mg/kg. Particulars: in vivo.
The target of the next data set is T1, Squalene synthase (Homo sapiens, UniProt P37268).
T1 sequence (P37268 whole entry): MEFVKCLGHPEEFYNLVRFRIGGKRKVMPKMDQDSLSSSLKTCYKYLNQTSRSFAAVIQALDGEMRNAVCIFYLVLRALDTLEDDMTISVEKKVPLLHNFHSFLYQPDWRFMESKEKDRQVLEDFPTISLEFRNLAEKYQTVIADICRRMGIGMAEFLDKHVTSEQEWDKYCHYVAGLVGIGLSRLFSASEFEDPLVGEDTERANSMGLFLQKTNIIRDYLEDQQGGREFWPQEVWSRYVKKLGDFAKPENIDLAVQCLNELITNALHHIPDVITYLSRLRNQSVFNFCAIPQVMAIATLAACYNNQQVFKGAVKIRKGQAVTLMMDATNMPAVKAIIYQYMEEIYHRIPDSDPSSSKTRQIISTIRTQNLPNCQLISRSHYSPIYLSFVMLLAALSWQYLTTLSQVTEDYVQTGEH
Briefly: Inhibitory activity against squalene synthase (SQS) obtained from HepG2 cells. It is filed as cell-based.

Data set [2] is described as follows: Area under the curve for compound was evaluated in dog at a dose of 10 mg/kg. Set-up: dose 10 mg/kg. The note with it: in vivo. In kind it is ADME, organism-based, Canis lupus familiaris.

One may read the AUC as concentration integrated over time. Low values mean low exposure, high ones high exposure. For orientation: IC50 means the concentration needed to halve the response being measured. As to `C[C@@H](CC(=O)O)CC(=O)N[C@@H](C)[C@H](/C=C/c1ccc2ccccc2c1)Cc1ccc(Cl)c(Cl)c1`, the AUC in data set [1] came out at 54000 ng·h/mL. Besides, at Squalene synthase, the IC50 is 2.5 nM.

In the case of `C[C@@H](CC(=O)O)CC(=O)N[C@@H](C)[C@@H](Cc1ccc(Cl)c(Cl)c1)c1ccc(-c2ccccc2)c(F)c1`, in data set [2], the AUC came out at 9900 ng·h/mL. In addition, the IC50 at Squalene synthase was 3.9 nM.

Molecule `C[C@H](NC(=O)C[C@@H](CC(=O)O)C(=O)O)[C@@H](Cc1ccc(Cl)c(Cl)c1)c1ccc(-c2ccccc2)c(F)c1` showed an AUC in data set [1] of 900 ng·h/mL.
